Source: ChEMBL document CHEMBL3351437, “Ralfuranone Is Produced by an Alternative Aryl-Substituted γ-Lactone Biosynthetic Route in Ralstonia solanacearum” (2014)
≈ marks a conversion by molar mass, not a printed value. Calls of active or inactive are those of the source. The calls are words filed in the database; no cut-off is given here.

How the values were obtained:
[1] = system: Staphylococcus aureus; assay: Antimicrobial activity against Staphylococcus aureus after 18 hrs by microdilution method; format: functional
[2] = system: Enterococcus faecalis; assay: Antimicrobial activity against vancomycin-resistant Enterococcus faecalis after 18 hrs by microdilution method; format: functional
[3] = system: Bacillus subtilis; assay: Antimicrobial activity against Bacillus subtilis after 18 hrs by microdilution method; format: functional
[4] = system: Penicillium chrysogenum; assay: Antimicrobial activity against Penicillium notatum assessed as inhibition of conidia germination after 18 hrs by microdilution method; format: functional
[5] = system: Staphylococcus aureus; assay: Antimicrobial activity against methicillin-resistant Staphylococcus aureus after 18 hrs by microdilution method; format: functional
[6] = system: Mycolicibacterium vaccae; assay: Antimicrobial activity against Mycobacterium vaccae after 18 hrs by microdilution method; format: functional
[7] = system: Penicillium chrysogenum; assay: Antimicrobial activity against Penicillium notatum assessed as inhibition of conidia germination at 342 uM after 18 hrs by microdilution method; format: functional, organism-based
[8] = system: Staphylococcus aureus; assay: Antimicrobial activity against Staphylococcus aureus at 342 uM after 18 hrs by microdilution method; format: functional, organism-based
[9] = system: Staphylococcus aureus; assay: Antimicrobial activity against methicillin-resistant Staphylococcus aureus at 342 uM after 18 hrs by microdilution method; format: functional, organism-based
[10] = system: Enterococcus faecalis; assay: Antimicrobial activity against vancomycin-resistant Enterococcus faecalis at 342 uM after 18 hrs by microdilution method; format: functional, organism-based
[11] = system: Mycolicibacterium vaccae; assay: Antimicrobial activity against Mycobacterium vaccae at 342 uM after 18 hrs by microdilution method; format: functional, organism-based
[12] = system: Bacillus subtilis; assay: Antimicrobial activity against Bacillus subtilis at 342 uM after 18 hrs by microdilution method; format: functional, organism-based

Compound | MIC [2] | MIC [3] | MIC [4] | MIC [6] | other results
O=C(O)C1=C(c2ccccc2)/C(=C/c2ccccc2)C(=O)O1 | 21.2 µM | 5.3 µM | 42.4 µM | 10.6 µM | MIC [1]: 5.3 µM (≈ 1.55 µg/mL); MIC [5]: 5.3 µM (≈ 1.55 µg/mL)
O=C(O)c1cn(C2CC2)c2cc(N3CCNCC3)c(F)cc2c1=O [CIPROFLOXACIN] | 1.56 µg/mL | < 0.05 µg/mL |  | 0.2 µg/mL | 
C[C@@H]1[C@H](O)[C@@H](C)/C=C/C=C/C=C/C=C/C=C/C=C/C=C/[C@H](O[C@@H]2O[C@H](C)[C@@H](O)[C@H](N)[C@@H]2O)C[C@@H]2O[C@](O)(C[C@@H](O)C[C@@H](O)[C@H](O)CC[C@@H](O)C[C@@H](O)CC(=O)O[C@H]1C)C[C@H](O)[C@H]2C(=O)O [AMPHOTERICIN B] |  |  | 0.4 µg/mL |  | 
O=C1OCC(c2ccccc2)=C1C(O)c1ccccc1 (stereo unspecified) |  |  |  |  | Activity [7]: inactive; Activity [8]: inactive; Activity [9]: inactive; Activity [10]: inactive; Activity [11]: inactive; Activity [12]: inactive
